PubChem BioAssay AID1259407 (Chemical Carcinogenesis Research Information System (CCRIS), 2018)
Activity calls are given as the source filed them. How the calls were made is not given here.

System: CCRIS mutagenicity, Ames/micronucleus/aberration tests
Assay: CCRIS mutagenicity studies
[1] = Test System: AMES SALMONELLA TYPHIMURIUM, Strain/Indicator: TA98, Metabolic Activation: NONE, Method: STANDARD PLATE
[2] = Test System: AMES SALMONELLA TYPHIMURIUM, Strain/Indicator: TA100, Metabolic Activation: NONE, Method: STANDARD PLATE
[3] = Test System: AMES SALMONELLA TYPHIMURIUM, Strain/Indicator: TA100, Metabolic Activation: S-9, Method: STANDARD PLATE
[4] = Test System: AMES SALMONELLA TYPHIMURIUM, Strain/Indicator: TA1537, Metabolic Activation: NONE, Method: STANDARD PLATE

Structure (SMILES): O=C(OOC(=O)c1ccccc1)c1ccccc1
- mutagenic call (Test System: AMES SALMONELLA TYPHIMURIUM, Strain/Indicator: TA97, Metabolic Activation: HAMSTER, LIVER, S-9, AROCLOR 1254 (10 OR 30%), Method: PREINCUBATION): inactive; negative
- mutagenic call (Test System: AMES SALMONELLA TYPHIMURIUM, Strain/Indicator: TA97, Metabolic Activation: NONE, Method: PREINCUBATION): inactive; negative
- mutagenic call (Test System: AMES SALMONELLA TYPHIMURIUM, Strain/Indicator: TA97, Metabolic Activation: RAT, LIVER, S-9, AROCLOR 1254 (10 OR 30%), Method: PREINCUBATION): inactive; negative
- mutagenic call (Test System: AMES SALMONELLA TYPHIMURIUM, Strain/Indicator: TA97, Metabolic Activation: RAT, LIVER, S-9, AROCLOR 1254, Method: PREINCUBATION): inactive; negative
- mutagenic call (Test System: AMES SALMONELLA TYPHIMURIUM, Strain/Indicator: TA97A, Metabolic Activation: NONE, Method: PREINCUBATION): inactive; negative
- mutagenic call (Test System: AMES SALMONELLA TYPHIMURIUM, Strain/Indicator: TA97A, Metabolic Activation: RAT LIVER S-9, AROCLOR 1254, Method: PREINCUBATION): inactive; negative
- mutagenic call (Test System: AMES SALMONELLA TYPHIMURIUM, Strain/Indicator: TA98, Metabolic Activation: HAMSTER, LIVER, S-9, AROCLOR 1254 (10 OR 30%), Method: PREINCUBATION): inactive; negative
- mutagenic call (Test System: AMES SALMONELLA TYPHIMURIUM, Strain/Indicator: TA98, Metabolic Activation: NONE, Method: PREINCUBATION): inactive; negative
- mutagenic call (Test System: AMES SALMONELLA TYPHIMURIUM, Strain/Indicator: TA98, Metabolic Activation: RAT LIVER S-9, PHENOBARBITAL AND BETA-NAPHTHOFLAVONE, Method: PREINCUBATION): inactive; negative
- mutagenic call (Test System: AMES SALMONELLA TYPHIMURIUM, Strain/Indicator: TA98, Metabolic Activation: RAT, LIVER, S-9, AROCLOR 1254 (10 OR 30%), Method: PREINCUBATION): inactive; negative
- mutagenic call (Test System: AMES SALMONELLA TYPHIMURIUM, Strain/Indicator: TA100, Metabolic Activation: HAMSTER, LIVER, S-9, AROCLOR 1254 (10 OR 30%), Method: PREINCUBATION): inactive; negative
- mutagenic call (Test System: AMES SALMONELLA TYPHIMURIUM, Strain/Indicator: TA100, Metabolic Activation: NONE, Method: PREINCUBATION): inactive; negative
- mutagenic call (Test System: AMES SALMONELLA TYPHIMURIUM, Strain/Indicator: TA100, Metabolic Activation: RAT LIVER S-9, AROCLOR 1254, Method: PREINCUBATION): inactive; negative
- mutagenic call (Test System: AMES SALMONELLA TYPHIMURIUM, Strain/Indicator: TA100, Metabolic Activation: RAT LIVER S-9, PHENOBARBITAL AND BETA-NAPHTHOFLAVONE, Method: PREINCUBATION): inactive; negative
- mutagenic call (Test System: AMES SALMONELLA TYPHIMURIUM, Strain/Indicator: TA100, Metabolic Activation: RAT, LIVER, S-9, AROCLOR 1254 (10 OR 30%), Method: PREINCUBATION): inactive; negative
- mutagenic call (Test System: AMES SALMONELLA TYPHIMURIUM, Strain/Indicator: TA102, Metabolic Activation: NONE, Method: PREINCUBATION): inactive; negative
- mutagenic call (Test System: AMES SALMONELLA TYPHIMURIUM, Strain/Indicator: TA102, Metabolic Activation: RAT LIVER S-9, AROCLOR 1254, Method: PREINCUBATION): inactive; negative
- mutagenic call (Test System: AMES SALMONELLA TYPHIMURIUM, Strain/Indicator: TA102, Metabolic Activation: RAT, LIVER, S-9, AROCLOR 1254, Method: PREINCUBATION): inactive; negative
- mutagenic call (Test System: AMES SALMONELLA TYPHIMURIUM, Strain/Indicator: TA104, Metabolic Activation: NONE, Method: PREINCUBATION): inactive; negative
- mutagenic call (Test System: AMES SALMONELLA TYPHIMURIUM, Strain/Indicator: TA104, Metabolic Activation: RAT LIVER S-9, AROCLOR 1254, Method: PREINCUBATION): inactive; negative
- mutagenic call (Test System: AMES SALMONELLA TYPHIMURIUM, Strain/Indicator: TA1535, Metabolic Activation: HAMSTER, LIVER, S-9, AROCLOR 1254 (10 OR 30%), Method: PREINCUBATION): inactive; negative
- mutagenic call (Test System: AMES SALMONELLA TYPHIMURIUM, Strain/Indicator: TA1535, Metabolic Activation: NONE, Method: PREINCUBATION): inactive; negative
- mutagenic call (Test System: AMES SALMONELLA TYPHIMURIUM, Strain/Indicator: TA1535, Metabolic Activation: RAT LIVER S-9, PHENOBARBITAL AND BETA-NAPHTHOFLAVONE, Method: PREINCUBATION): inactive; negative
- mutagenic call (Test System: AMES SALMONELLA TYPHIMURIUM, Strain/Indicator: TA1535, Metabolic Activation: RAT, LIVER, S-9, AROCLOR 1254 (10 OR 30%), Method: PREINCUBATION): inactive; negative
- mutagenic call (Test System: AMES SALMONELLA TYPHIMURIUM, Strain/Indicator: TA1537, Metabolic Activation: NONE, Method: PREINCUBATION): inactive; negative
- mutagenic call (Test System: AMES SALMONELLA TYPHIMURIUM, Strain/Indicator: TA1537, Metabolic Activation: RAT LIVER S-9, PHENOBARBITAL AND BETA-NAPHTHOFLAVONE, Method: PREINCUBATION): inactive; negative
- mutagenic call (Test System: E.COLI, Strain/Indicator: WP2UVRA/PKM101, Metabolic Activation: NONE, Method: PREINCUBATION): inactive; negative
- mutagenic call (Test System: E.COLI, Strain/Indicator: WP2UVRA/PKM101, Metabolic Activation: RAT LIVER S-9, PHENOBARBITAL AND BETA-NAPHTHOFLAVONE, Method: PREINCUBATION): inactive; negative

Structure (SMILES): Nc1snc2ccc([N+](=O)[O-])cc12
- mutagenic call [1]: active; positive
- mutagenic call (Test System: AMES SALMONELLA TYPHIMURIUM, Strain/Indicator: TA98, Metabolic Activation: S-9, Method: STANDARD PLATE): active; positive
- mutagenic call [2]: active; positive
- mutagenic call [3]: active; positive
- mutagenic call (Test System: AMES SALMONELLA TYPHIMURIUM, Strain/Indicator: TA1535, Metabolic Activation: NONE, Method: STANDARD PLATE): inactive; negative
- mutagenic call (Test System: AMES SALMONELLA TYPHIMURIUM, Strain/Indicator: TA1535, Metabolic Activation: S-9, Method: STANDARD PLATE): inactive; negative
- mutagenic call [4]: active; positive
- mutagenic call (Test System: AMES SALMONELLA TYPHIMURIUM, Strain/Indicator: TA1537, Metabolic Activation: S-9, Method: STANDARD PLATE): active; positive

Structure (SMILES): [N-]=[N+]=Nc1ccc(Nc2c3ccccc3nc3ccccc23)cc1
- mutagenic call [4]: active; positive

Structure (SMILES): O=C(N=c1sn(C(=O)c2cccc([N+](=O)[O-])c2)c2ccc([N+](=O)[O-])cc12)c1cccc([N+](=O)[O-])c1
- mutagenic call [3]: active; positive

Structure (SMILES): O=C(O)[C@@H]1CSCN1
- mutagenic call (Test System: AMES SALMONELLA TYPHIMURIUM, Strain/Indicator: TA102, Metabolic Activation: NONE, Method: STANDARD PLATE): inactive; negative
- mutagenic call (Test System: AMES SALMONELLA TYPHIMURIUM, Strain/Indicator: TA102, Metabolic Activation: RAT, LIVER, S-9, PHENOBARBITAL, Method: STANDARD PLATE): inactive; negative
- mutagenic call (Test System: AMES SALMONELLA TYPHIMURIUM, Strain/Indicator: TA104, Metabolic Activation: NONE, Method: STANDARD PLATE): inactive; negative
- mutagenic call (Test System: AMES SALMONELLA TYPHIMURIUM, Strain/Indicator: TA104, Metabolic Activation: RAT, LIVER, S-9, PHENOBARBITAL, Method: STANDARD PLATE): inactive; negative

Structure (SMILES): CC(C)OC(=O)/C(Cl)=C(/Cl)C=O
- mutagenic call [2]: active; positive

Structure (SMILES): Cc1cncc(C)c1.Cc1cncc(C)c1.[Cl][Pt][Cl]
- mutagenic call (Test System: AMES SALMONELLA TYPHIMURIUM, Strain/Indicator: TA92, Metabolic Activation: NONE, Method: STANDARD PLATE): inactive; negative
- mutagenic call [1]: active; positive
- mutagenic call [2]: inactive; negative
- mutagenic call (Test System: AMES SALMONELLA TYPHIMURIUM, Strain/Indicator: TA2410, Metabolic Activation: NONE, Method: STANDARD PLATE): active; positive
